Legend:
Rattus norvegicus = species: Rattus norvegicus; test: Dose normalised AUC (0-8 hrs) in rat; format: ADME, organism-based; set-up: time < 8 hr; conditions: in vivo
Integrin alpha-4/beta-1 = Integrin alpha-4/beta-1 (Homo sapiens, UniProt P05556+P13612); test: Inhibition of integrin alpha-4-beta-1 receptor expressed in Jurkat J6 cells by SPA; format: cell-based
[1] = Bioavailability in Sprague-Dawley rat at 1 mg/kg, iv and 3 mg/kg, po; format: ADME, organism-based; conditions: in vivo
[2] = Volume of distribution of steady state in rat; format: ADME, organism-based; conditions: in vivo, read-out: Vss
[3] = Half life in rat; format: ADME, organism-based; conditions: in vivo
[4] = Clearance in iv dosed rat; format: ADME, organism-based; conditions: in vivo

Sequence of Integrin alpha-4/beta-1 (P05556 whole entry): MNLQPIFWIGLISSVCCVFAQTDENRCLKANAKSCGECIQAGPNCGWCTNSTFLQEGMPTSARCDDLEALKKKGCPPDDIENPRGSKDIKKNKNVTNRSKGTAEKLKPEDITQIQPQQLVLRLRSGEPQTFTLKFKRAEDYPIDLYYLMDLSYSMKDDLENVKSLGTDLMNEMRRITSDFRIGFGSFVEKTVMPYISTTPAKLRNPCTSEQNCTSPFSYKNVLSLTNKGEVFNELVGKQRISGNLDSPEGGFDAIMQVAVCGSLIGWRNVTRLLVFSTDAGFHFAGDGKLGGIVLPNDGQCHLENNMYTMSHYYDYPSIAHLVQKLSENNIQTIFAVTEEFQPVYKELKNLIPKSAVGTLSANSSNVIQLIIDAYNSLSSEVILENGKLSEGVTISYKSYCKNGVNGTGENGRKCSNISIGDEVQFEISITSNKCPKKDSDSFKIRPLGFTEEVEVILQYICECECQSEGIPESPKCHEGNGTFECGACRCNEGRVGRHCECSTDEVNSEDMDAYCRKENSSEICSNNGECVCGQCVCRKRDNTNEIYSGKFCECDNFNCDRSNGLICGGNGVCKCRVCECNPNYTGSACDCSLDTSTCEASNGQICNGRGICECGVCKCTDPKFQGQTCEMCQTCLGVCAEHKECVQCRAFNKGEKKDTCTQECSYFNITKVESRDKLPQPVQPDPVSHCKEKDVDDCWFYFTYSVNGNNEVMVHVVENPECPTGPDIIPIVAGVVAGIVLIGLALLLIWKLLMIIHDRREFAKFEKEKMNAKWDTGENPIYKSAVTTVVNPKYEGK
Sequence of Integrin alpha-4/beta-1 (P13612 whole entry): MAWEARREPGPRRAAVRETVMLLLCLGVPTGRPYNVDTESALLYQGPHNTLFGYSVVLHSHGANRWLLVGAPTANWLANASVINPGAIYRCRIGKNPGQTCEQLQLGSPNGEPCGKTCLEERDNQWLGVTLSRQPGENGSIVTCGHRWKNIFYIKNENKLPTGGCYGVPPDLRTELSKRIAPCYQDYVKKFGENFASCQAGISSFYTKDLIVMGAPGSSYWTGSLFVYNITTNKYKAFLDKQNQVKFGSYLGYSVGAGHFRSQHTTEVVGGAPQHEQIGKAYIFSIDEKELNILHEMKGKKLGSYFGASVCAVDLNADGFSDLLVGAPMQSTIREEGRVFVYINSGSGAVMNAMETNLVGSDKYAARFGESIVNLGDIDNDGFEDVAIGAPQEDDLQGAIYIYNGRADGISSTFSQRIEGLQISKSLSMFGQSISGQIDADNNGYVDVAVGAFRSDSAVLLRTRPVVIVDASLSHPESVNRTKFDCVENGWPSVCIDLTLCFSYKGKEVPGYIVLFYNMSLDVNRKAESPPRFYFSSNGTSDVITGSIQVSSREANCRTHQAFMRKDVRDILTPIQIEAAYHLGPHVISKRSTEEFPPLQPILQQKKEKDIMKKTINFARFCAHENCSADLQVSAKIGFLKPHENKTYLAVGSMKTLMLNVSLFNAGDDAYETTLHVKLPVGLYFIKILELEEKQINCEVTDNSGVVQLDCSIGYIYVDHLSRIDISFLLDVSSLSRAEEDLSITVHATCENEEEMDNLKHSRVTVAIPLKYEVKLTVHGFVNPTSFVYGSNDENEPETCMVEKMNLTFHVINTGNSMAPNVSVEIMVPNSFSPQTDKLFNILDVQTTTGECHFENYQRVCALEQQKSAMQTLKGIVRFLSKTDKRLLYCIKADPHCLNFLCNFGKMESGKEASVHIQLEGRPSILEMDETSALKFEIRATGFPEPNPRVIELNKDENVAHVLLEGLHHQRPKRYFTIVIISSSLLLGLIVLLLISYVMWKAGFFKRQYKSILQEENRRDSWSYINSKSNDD

SMILES	Ki (Integrin alpha-4/beta-1) [nM]	other results
COc1cc(-c2cccn(Cc3ccc(CCC(=O)O)cc3)c2=O)ccc1NC(=O)Nc1ccccc1C	–	AUC (Rattus norvegicus): 6 kg·min/L
Cc1ccccc1NC(=O)Nc1ccc(-c2cccn(Cc3ccc([C@@H](C)CC(=O)O)cc3)c2=O)c(C)c1	2.51	–
Cc1ccccc1NC(=O)Nc1ccc(-c2cccn(Cc3ccc([C@@H](C)CC(=O)O)cc3)c2=O)c(Cl)c1	2	–
Cc1ccccc1NC(=O)Nc1ccc(-c2cccn(Cc3ccc([C@H](C)CC(=O)O)cc3)c2=O)c(C)c1	1	–
Cc1ccccc1NC(=O)Nc1ccc(-c2cccn(Cc3ccc([C@H](C)CC(=O)O)cc3)c2=O)cc1	1	bioavailability [1]: 22%; AUC (Rattus norvegicus): 14 kg·min/L; Vd [2]: 0.6 L/kg; half-life [3]: 1.3 h; clearance [4]: 16 mL/min/kg
Cc1ccccc1NC(=O)Nc1ccc(-c2cccn(Cc3ccc([C@H](C)CC(=O)O)cc3)c2=O)c(OC(F)(F)F)c1	3.98	–
Cc1ccccc1NC(=O)Nc1ccc(-c2cccn(Cc3ccc([C@@H](C)CC(=O)O)cc3)c2=O)c(OC(F)(F)F)c1	20	–
Cc1ccccc1NC(=O)Nc1ccc(-c2cccn(Cc3ccc([C@@H](C)CC(=O)O)cc3)c2=O)cc1Cl	25.1	–
CCOc1cc(NC(=O)Nc2ccccc2C)ccc1-c1cccn(Cc2ccc([C@@H](C)CC(=O)O)cc2)c1=O	5.01	–
Cc1ccccc1NC(=O)Nc1ccc(-c2cccn(Cc3ccc([C@H](C)CC(=O)O)cc3)c2=O)c(Cl)c1	1	–
Cc1ccccc1NC(=O)Nc1ccc(-c2cccn(Cc3ccc([C@@H](C)CC(=O)O)cc3)c2=O)cc1	2.51	–
Cc1ccccc1NC(=O)Nc1ccc(-c2cccn(Cc3ccc([C@H](C)CC(=O)O)cc3)c2=O)cc1Cl	0.794	–
CCOc1cc(NC(=O)Nc2ccccc2C)ccc1-c1cccn(Cc2ccc([C@H](C)CC(=O)O)cc2)c1=O	2	–
CCc1cc(NC(=O)Nc2ccccc2C)ccc1-c1cccn(Cc2ccc([C@@H](C)CC(=O)O)cc2)c1=O	50.1	–
CCc1cc(NC(=O)Nc2ccccc2C)ccc1-c1cccn(Cc2ccc([C@H](C)CC(=O)O)cc2)c1=O	6.31	–

More lines, main results first:

Ki (Integrin alpha-4/beta-1) [nM]	SMILES	other results
2.51	Cc1ccccc1NC(=O)Nc1ccc(-c2cccn(Cc3ccc(CCC(=O)O)cc3)c2=O)cc1	AUC (Rattus norvegicus): 3 kg·min/L
7.94	COc1cc(-c2cccn(Cc3ccc(CCC(=O)O)cc3)c2=O)ccc1NC(=O)Nc1cc(C)ccc1C	–
1	COc1cc(-c2cccn(Cc3ccc([C@@H](C)CC(=O)O)cc3)c2=O)ccc1NC(=O)Nc1ccccc1C	–
5.01	COc1cc(-c2cccn(Cc3ccc(CCC(=O)O)cc3)c2=O)ccc1NC(=O)Nc1ccccc1Br	–
25.1	COc1cc(-c2cccn(Cc3ccc(CCC(=O)O)cc3)c2=O)ccc1NC(=O)Nc1ccc(C)cc1C	–
20	Cc1ccccc1NC(=O)Nc1ccc(-c2cccn(Cc3ccc([C@@H](C)CC(=O)O)cc3)c2=O)cc1C	–
2	COc1cc(-c2cccn(Cc3ccc(CCC(=O)O)cc3)c2=O)ccc1NC(=O)Nc1c(C)cccc1C	–
316	COc1cc(-c2cccn(Cc3ccc(CCC(=O)O)cc3)c2=O)ccc1NC(=O)Nc1ccccc1C(C)C	–
6.31	COc1cc(-c2cccn(Cc3ccc(CCC(=O)O)cc3)c2=O)ccc1NC(=O)Nc1ccccc1NC(C)=O	–
6.31	COc1ccccc1NC(=O)Nc1ccc(-c2cccn(Cc3ccc(CCC(=O)O)cc3)c2=O)cc1OC	–
25.1	COc1cc(-c2cccn(Cc3ccc(CCC(=O)O)cc3)c2=O)ccc1NC(=O)Nc1cccc(C)c1C	–
2.51	Cc1ccccc1NC(=O)Nc1ccc(-c2cccn(Cc3ccc([C@H](C)CC(=O)O)cc3)c2=O)cc1C	–
1.58	COc1cc(-c2cccn(Cc3ccc(CCC(=O)O)cc3)c2=O)ccc1NC(=O)Nc1ccccc1	–
0.794	COc1cc(-c2cccn(Cc3ccc([C@H](C)CC(=O)O)cc3)c2=O)ccc1NC(=O)Nc1ccccc1C	bioavailability [1]: 121%; AUC (Rattus norvegicus): 154 kg·min/L; Vd [2]: 0.6 L/kg; half-life [3]: 1.4 h; clearance [4]: 9 mL/min/kg

Reference: ChEMBL document CHEMBL1139683, “Pyridone derivatives as potent, orally bioavailable VLA-4 integrin antagonists” (Bioorg Med Chem Lett, 2006)
